Test results taken from patent publication US11752196B2, “Treatment of pyroptosis” (priority 2018, dated 2023).

Tested on: GSDMD cleavage in Huh7 hepatocytes
Assay: LPS-induced pyroptosis (GSDMD cleavage) in Huh7 hepatocytes pre-treated with tunicamycin and/or very low-dose LPS
Format: cell-based, Human
Details: tunicamycin and/or LPS 1 μg/ml for 24 hours, then LPS 30 μg/ml
Description: FIG. 13—LPS-dependent pyroptosis in hepatocytes and priming by ER stress.
All measurements were performed in triplicate.
In addition to hepatocyte ER stress, increased levels of circulating endotoxin are detected in advanced liver disease. Therefore, to determine the importance of hepatocyte ER stress and low-level endotoxin exposure as mediators of upregulation of the caspase-4/11 pathway, Huh7 hepatocytes were pre-treated with the ER stress inducer, tunicamycin and/or very low-dose LPS (1 μg/ml) for 24 hours, prior to the LPS ‘hit’ (30 μg/ml) (FIG. 13). […] Importantly, in these experiments hepatocyte pyroptosis was independent of the TLR4 pathway, as GSDMD cleavage was not inhibited by the TLR4 antagonist TAK-242. Caspase-11 deficient mice are protected from hepatic and extra-hepatic organ injury in ACLF Casp11^−/− mice are deficient in the caspase-11 pathway, but the caspase-1 pathway remains intact. Casp11^−/− mice develop a similar level of advanced fibrosis/cirrhosis compared to wildtype (wt) after treatment with 20 doses of CCl4 (FIG. 14A).

How did the “GSDMD cleavage (inhibition by TLR4 antagonist)” value turn out when `CCOC(=O)C1=CCCC[C@H]1S(=O)(=O)Nc1ccc(F)cc1Cl` [TAK-242] was run?
The value was “not inhibited”.
